Measurements taken from US5847159A, “1-[ω-(3,4-dihydro-2-naphthalenyl)alkyl]-cyclic amine derivatives, process for preparing the same, and pharmaceutical composition containing the same” (priority 1995, dated 1998).
Where a name gives a salt, the structure may show the parent alone.

System: rhythmic bladder contractions (micturition reflex)
Assay: Inhibitory effect on rhythmic bladder contractions (micturition reflex)
Type: in vivo, Female Std-Wistar rats
Settings: i.d., rat; for inhibition in vivo at 10 mg/kg / inhibition in vivo at 30 mg/kg: intraduodenal, mean over two hours, read-out: Inhibitory rate on contractile frequency; for inhibition in vivo at 10 mg/kg / ED50 / inhibition in vivo at 30 mg/kg: 2 h; for ED50: two hours, read-out: ED50, inhibitory effect on contractile frequency; for Potency on frequency of rhythmic bladder contractions relative to inaperisone hydrochloride (Compound A): compared with Compound A
Protocol: Inhibitory effect on rhythmic bladder contractions (micturition reflex)
The experiment was carried out according to the method of Maggi, C. […] It is generally accepted that the rhythmic bladder contractions evoked by instillation of saline solution into the bladder are mediated via the micturition reflex pathway like that of natural urination.
Female Std-Wistar rats weighing 160-190 g were used in groups of 3-4 animals. Under urethane anesthesia (1 g/kg, s.c.), both ureters were tied and cut at the side of kidney after a mid line incision of the abdomen. A cannula, connected to a syringe and a pressure transducer, was inserted into the bladder via the external urethral orifice and ligated around the proximal urethra. The animal was allowed to stay for about 30 minutes after the operation. The bladder was slowly filled with warm saline solution (0.4-1 ml) by means of a syringe until rhythmic contractions were induced. The change of the intravesical pressure was recorded on a recorder via a pressure transducer. After the rhythmic contractions became constant, test compounds dissolved or suspended in 0.5% aqueous tragacanth solution were administered via the cannula inserted for intraduodenal administration. The effect of each compound on the contractile frequency was investigated every 15 minutes till two hours after the administration.
The inhibitory rate on the contractile frequency (two hours) was expressed as the mean value of the inhibitory rates at an every 15-minute interval for two hours after the administration, which was determined based on the contractile frequency for 15 minutes before the administration.

| Compound | Effect on the amplitude of contraction | inhibition in vivo at 10 mg/kg | also measured |
| --- | --- | --- | --- |
| C1=C(CCCN2CCCCC2)CCc2ccccc21 [Ex. 3] | suppressed the amplitude of contraction | 38% | – |
| C1=C(CCCCN2CCCC2)CCc2ccccc21 [Ex. 4] | suppressed the amplitude of contraction | – | ED50: 11.4 mg/kg; Potency on frequency of rhythmic bladder contractions relative to inaperisone hydrochloride (Compound A): ~3 times more potent |
| C1=C(CCCCN2CCCCC2)CCc2ccccc21 [Ex. 6] | – | 42% | – |
| Fc1cccc2c1CCC(CCN1CCCCC1)=C2 [Ex. 8] | – | – | inhibition in vivo at 30 mg/kg: 62% |
| Fc1cccc2c1CCC(CCN1CCCCCC1)=C2 [Ex. 9] | – | 47% | – |
| Fc1ccc2c(c1)CCC(CCN1CCCC1)=C2 [Ex. 10] | – | 33% | – |
| Fc1ccc2c(c1)CCC(CCN1CCCCC1)=C2 [Ex. 11] | – | – | inhibition in vivo at 30 mg/kg: 60% |
| Fc1ccc2c(c1)C=C(CCN1CCCC1)CC2 [Ex. 12] | suppressed the amplitude of contraction | 35% | – |
| Fc1ccc2c(c1)C=C(CCN1CCCCC1)CC2 [Ex. 13] | – | – | inhibition in vivo at 30 mg/kg: 77% |
| Clc1cccc2c1CCC(CCN1CCCC1)=C2 [Ex. 14] | – | 49% | – |
| Clc1ccc2c(c1)C=C(CCN1CCCC1)CC2 [Ex. 15] | – | 44% | – |
| Cc1cccc2c1CCC(CCN1CCCCC1)=C2 [Ex. 18] | – | – | inhibition in vivo at 30 mg/kg: 51% |
| Cc1ccc2c(c1)C=C(CCN1CCCC1)CC2 [Ex. 20] | suppressed the amplitude of contraction | – | inhibition in vivo at 30 mg/kg: 67% |
| COc1cccc2c1CCC(CCN1CCCCC1)=C2 [Ex. 26] | suppressed the amplitude of contraction | – | ED50: 29.1 mg/kg |
| COc1cccc2c1CCC(CCCCCN1CCCCC1)=C2 [Ex. 32] | – | 47% | – |
| COc1ccc2c(c1)C=C(CCN1CCCCC1)CC2 [Ex. 34] | – | – | inhibition in vivo at 30 mg/kg: 65% |
| Fc1cc2c(cc1F)CCC(CCN1CCCC1)=C2 [Ex. 36, 1-[2-(6,7-difluoro-3,4-dihydro-2-naphthalenyl)ethyl]pyrrolidine] | suppressed the amplitude of contraction | – | ED50: 12.9 mg/kg; Potency on frequency of rhythmic bladder contractions relative to inaperisone hydrochloride (Compound A): ~3 times more potent |
| Cc1cc2c(cc1C)CCC(CCN1CCC1)=C2 [Ex. 41] | suppressed the amplitude of contraction | 38% | – |

| Compound | Effect on the amplitude of contraction | inhibition in vivo at 10 mg/kg | also measured |
| --- | --- | --- | --- |
| Cc1cc2c(cc1C)CCC(CCN1CCCCCC1)=C2 [Ex. 44] | – | 34% | – |
| Cc1cc2c(cc1C)CCC(CCN1CCCCCCC1)=C2 [Ex. 45] | – | 48% | – |
| CCc1cc2c(cc1CC)CCC(CCN1CCCC1)=C2 [Ex. 46, 1-[2-(6,7-diethyl-3,4-dihydro-2-naphthalenyl)ethyl]pyrrolidine] | – | – | ED50: 12.4 mg/kg |
| C1=C(CCN2CCCC2)CCc2cc3c(cc21)CCC3 [Ex. 47] | – | 37% | – |
| C1=C(CCN2CCCC2)CCc2cc3c(cc21)OCO3 [Ex. 49] | suppressed the amplitude of contraction | 46% | – |
| Cc1cc2c(cc1C)CCC(CCN1C(C)CCC1C)=C2 (centres unmarked) [Ex. 50, 1-[2-(3,4-dihydro-6,7-dimethyl-2-naphthalenyl)ethyl]-2,5-dimethylpyrolidin] | suppressed the amplitude of contraction | 50% | – |
| Fc1cc(F)c2c(c1)C=C(CCN1CCCC1)CC2 [Ex. 52, 1-[2-(5,7-difluoro-3,4-dihydro-2-naphthalenyl)ethyl]-pyrrolidine] | – | 52% | – |
| Fc1cccc2c1CCC(CCN1CCC(F)C1)=C2 (centres unmarked) [Ex. 53] | – | 35% | – |
| Fc1ccc2c(c1F)CCC(CCN1CCCC1)=C2 [Ex. 54] | – | 43% | – |
| Fc1ccc(F)c2c1C=C(CCN1CCCC1)CC2 [Ex. 55] | – | 43% | – |
| COC(=O)c1ccc2c(c1)C=C(CCN1CCCC1)CC2 [Ex. 56, 1-[2-(3,4-Dihydro-7-methoxycarbonyl-2-naphthalenyl)ethyl]pyrrolidine] | suppressed the amplitude of contraction | 34% | – |
| COc1ccc2c(c1)C=C(CCN1CCCC1)CC2 [Ex. 58, 1-[2-(3,4-dihydro-7-methoxy-2-naphthalenyl)ethyl]-pyrrolidine] | – | 34% | – |
| OC1CCN(CCC2=Cc3ccccc3CC2)C1 (centres unmarked) [Ex. 60, 1-[2-(3,4-Dihydro-2-naphthalenyl)ethyl]-3-hydroxypyrrolidine hydrochloride] | – | 33% | – |
| COc1cc2c(cc1OC)CCC(CCN1CCCC1)=C2 [Ex. 62, 1-[2-(3,4-dihydro-6,7-dimethoxy-2-naphthalenyl)ethyl]-pyrrolidine] | suppressed the amplitude of contraction | – | ED50: 6.1 mg/kg; Potency on frequency of rhythmic bladder contractions relative to inaperisone hydrochloride (Compound A): approximately 5.7 times more potent |
| Cc1cc2c(cc1C)CCC(CCN1CCC(O)C1)=C2 (centres unmarked) [Ex. 66] | – | 34% | – |
| COc1cc2c(cc1C)CCC(CCN1CCCC1)=C2 [Ex. 68, 1-[2-(3,4-dihydro-7-methoxy-6-methyl-2-naphthalenyl)ethyl]pyrrolidine] | suppressed the amplitude of contraction | – | ED50: 7.4 mg/kg; Potency on frequency of rhythmic bladder contractions relative to inaperisone hydrochloride (Compound A): ~4.7 times more potent |
| Cc1cc2c(cc1CO)CCC(CCN1CCCC1)=C2 [Ex. 72, 1-[2-(3,4-dihydro-6-hydroxymethyl-7-methyl-2-naphthalenyl)ethyl]pyrrolidin] | suppressed the amplitude of contraction | 49% | – |
| Cc1cc2c(cc1C(=O)O)CCC(CCN1CCCC1)=C2 [Ex. 74, 1-[2-(6-carboxy-3,4-dihydro-7-methyl-2-naphthalenyl)-ethyl]pyrrolidine] | – | 42% | – |
